In US7759345B2, “Antitumoral derivatives of ET-743” (priority 2001, dated 2010):
pIC50: −log10 of the molar value. Read-outs that look alike come from different tables or passages of the source.

How the values were obtained:
[1] = system: DU-145; assay: Inhibition of cell growth by counting cells, DU-145; type: cell-based, human; details: read-out: IC50 (molar) DU-145
Method: (§1) 1°.—Inhibition of Cell Growth by Counting Cells.
(§2) This form of the assay employs 24 well multidishes of 16 mm diameter (Bergeron, 1984; Schroeder, 1981). The tumor cell lines employed are: P-388 (ATCC CCL 46), suspension culture of a lymphoid neoplasm from a DBA/2 mouse; A-549 (ATCC CCL 185), monolayer culture of a human lung carcinoma; HT-29 (ATCC HTB-38), monolayer culture of a human colon carcinoma; MEL-28 (ATCC HTB-72), monolayer culture of a human melanoma and DU-145 (ATCC HTB-81), monolayer culture of a human prostate carcinoma.
(§3) Cells were maintained, in logarithmic phase of growth in Eagle's Minimum Essential Medium, with Earle's Balanced Salts, with non-essential amino acids, with 2.0 mM L-Glutamine, without sodium bicarbonate (EMEM/neaa), supplemented with 10% Fetal Calf Serum (FCS), 10^−2 M. sodium bicarbonate and 0.1 U/l penicillin G+0.1 g/l streptomycin sulfate. For the experiments, cells are harvested from subconfluent cultures using trypsin and resuspended in fresh medium before plating.
(§4) A-549, HT-29, MEL-28 and DU-145 cells were seeded into 16 mm diameter wells at 1×10^4 cells per well in 1 ml aliquots of EMEM 5% FCS containing different concentrations of the sample to be tested. A separate set of cultures without drug was seeded as control of growth, to ensure that cells remained in exponential phase of growth. All determinations are carrying out in duplicate. After three days of incubation at 37° C., 5% CO2 in a 98% humid atmosphere cells were stained with 0.1% crystal violet. An approximately IC50 was determined by comparing the growth in wells with drug to the growth in wells control.
(§5) For quantifying the activity, after the incubation time, cells are trypsinized and counted in a Coulter Counter ZM. All counts (net cells per well), represent the average of duplicate wells. % G, percent of growth relative to cultures without drug. The results of these assays are used to generate dose-response curves from which more precise IC50 values are determined (sample concentration which produces 50% cell growth inhibition).
(§6) Obtained results may predict the usefulness of a certain drug as a potential cancer treatment. For this technique, compounds which show IC50 values smaller than 1 μg/ml are selected to continue with further studies. IC50's data allow to predict that not only could a drug be cystostatic, but also it could have a potential in terms of tumor reduction.

[2] = system: MEL-28; assay: Inhibition of cell growth by counting cells, MEL-28; type: cell-based, human; details: read-out: IC50 (molar) MEL-28
Method: as §1, §2, §3, §4, §5, §6

[3] = system: A-549; assay: Inhibition of cell growth by counting cells, A-549; type: cell-based, human; details: read-out: IC50 (molar) A-549
Method in brief: (§7)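 Monolayer lines were plated at 1×10^4 cells per well with compound in medium containing 5% FCS. After a 3-day incubation at 37° C, crystal violet staining gave an approximate IC50, and cell counting of duplicate wells gave the dose-response IC50.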

[4] = system: HT-29; assay: Inhibition of cell growth by counting cells, HT-29; type: cell-based, human; details: read-out: IC50 (molar) HT-29
Method in brief: as §7

[5] = system: P-388; assay: Inhibition of cell growth by counting cells, P-388; type: cell-based, mouse; details: read-out: IC50 (molar) P-388
Method: as §1, §2, §3
P-388 cells were seeded into 16 mm diameter wells at 1×10^4 cells per well in 1 ml aliquots of EMEM 5% FCS containing different concentrations of the sample to be tested. A separate set of cultures without drug was seeded as control of growth, to ensure that cells remained in exponential phase of growth. All determinations are carrying out in duplicate.
as §5, §6

[6] = Homo sapiens, DU-145, 72 h, three days of incubation
[7] = Homo sapiens, SK-MEL-28, 72 h, three days of incubation
[8] = Homo sapiens, A549, 72 h, three days of incubation
[9] = Homo sapiens, HT-29, 72 h, three days of incubation
[10] = Mus musculus, P388, 72 h, three days of incubation

SMILES | pIC50 [1, 6] | pIC50 [2, 7] | pIC50 [3, 8] | pIC50 [4, 9] | pIC50 [5, 10] | pIC50 ([1]; Homo sapiens, DU-145, 72 h) | also measured
COc1cc2c(cc1OC(=O)OC(C)(C)C)CCN[C@]21CS[C@@H]2c3c(OC(C)=O)c(C)c4c(c3[C@H](COC1=O)N1C2[C@H]2c3c(cc(C)c(OC)c3OC(=O)OC(C)(C)C)C[C@@H]([C@@H]1C#N)N2C)OCO4 (stereo partly shown) [Compound 5] | 9.29 | 9.29 | 9.29 | 9.29 | 9.29 |  | 
CCCC(=O)Oc1cc2c(cc1OC)[C@@]1(CS[C@@H]3c4c(OC(C)=O)c(C)c5c(c4[C@H](COC1=O)N1C3[C@H]3c4c(cc(C)c(OC)c4O)C[C@@H]([C@@H]1C#N)N3C)OCO5)NCC2 (stereo partly shown) [Compound 7] | 9.23 | 9.92 | 9.92 | 9.23 | 9.92 |  | 
COc1cc2c(cc1OC(=O)/C=C/c1ccccc1)CCN[C@]21CS[C@@H]2c3c(OC(C)=O)c(C)c4c(c3[C@H](COC1=O)N1C2[C@H]2c3c(cc(C)c(OC)c3O)C[C@@H]([C@@H]1C#N)N2C)OCO4 (stereo partly shown) [Compound 8] |  | 9.95 | 9.95 | 9.25 | 9.95 | 9.25 | 
CCCC(=O)Oc1cc2c(cc1OC)[C@@]1(CS[C@@H]3c4c(OC(C)=O)c(C)c5c(c4[C@H](COC1=O)N1C3[C@H]3c4c(cc(C)c(OC)c4OC(=O)CCC)C[C@@H]([C@@H]1C#N)N3C)OCO5)NCC2 (stereo partly shown) [Compound 9] | 9.96 | 9.96 | 9.96 | 9.96 | 9.96 |  | 
COc1cc2c(cc1OC(=O)/C=C/c1ccccc1)CCN[C@]21CS[C@@H]2c3c(OC(C)=O)c(C)c4c(c3[C@H](COC1=O)N1C2[C@H]2c3c(cc(C)c(OC)c3OC(=O)/C=C/c3ccccc3)C[C@@H]([C@@H]1C#N)N2C)OCO4 (stereo partly shown) [Compound 10] |  | 8.01 | 8.01 | 8.01 | 8.01 | 8.01 | 
CCCCCCCC(=O)Oc1cc2c(cc1OC)[C@@]1(CS[C@@H]3c4c(OC(C)=O)c(C)c5c(c4[C@H](COC1=O)N1C3[C@H]3c4c(cc(C)c(OC)c4O)C[C@@H]([C@@H]1C#N)N3C)OCO5)NCC2 (stereo partly shown) [Compound 14] |  |  |  |  |  |  | pIC50 ([1]; three days of incubation): 8.95; pIC50 ([2]; three days of incubation): 8.95; pIC50 ([3]; three days of incubation): 8.95; pIC50 ([4]; three days of incubation): 8.95; pIC50 ([5]; three days of incubation): 8.95
CCCCCCCC(=O)Oc1cc2c(cc1OC)[C@@]1(CS[C@@H]3c4c(OC(C)=O)c(C)c5c(c4[C@H](COC1=O)N1C3[C@H]3c4c(cc(C)c(OC)c4OC(=O)CCCCCCC)C[C@@H]([C@@H]1C#N)N3C)OCO5)NCC2 (stereo partly shown) [Compound 15] | 7.01 | 7.01 | 7.01 | 7.01 | 7.01 |  | 
CCCCCCCCCCCCCCCC(=O)Oc1cc2c(cc1OC)[C@@]1(CS[C@@H]3c4c(OC(C)=O)c(C)c5c(c4[C@H](COC1=O)N1C3[C@H]3c4c(cc(C)c(OC)c4O)C[C@@H]([C@@H]1C#N)N3C)OCO5)NCC2 (stereo partly shown) [Compound 16] | 8.00 | 8.00 | 8.00 | 8.00 | 8.00 |  | 
CCCCCCCCCCCCCCCC(=O)Oc1cc2c(cc1OC)[C@@]1(CS[C@@H]3c4c(OC(C)=O)c(C)c5c(c4[C@H](COC1=O)N1C3[C@H]3c4c(cc(C)c(OC)c4OC(=O)CCCCCCCCCCCCCCC)C[C@@H]([C@@H]1C#N)N3C)OCO5)NCC2 (stereo partly shown) [Compound 17] | 7.10 | 7.10 | 7.10 | 7.10 | 7.10 |  | 
C=CCOC(=O)NC(CSCC1c2ccccc2-c2ccccc21)C(=O)Oc1cc2c(cc1OC)[C@@]1(CS[C@@H]3c4c(OC(C)=O)c(C)c5c(c4[C@H](COC1=O)N1C3[C@H]3c4c(cc(C)c(OC)c4O)C[C@@H]([C@@H]1C#N)N3C)OCO5)NCC2 (stereo partly shown) [Compound 18] | 9.36 | 9.36 | 9.36 | 9.36 | 9.36 |  | 
COc1cc2c(cc1OC(=O)CCCCC1SCC3NC(=O)NC31)CCNC21CSC2c3c(OC(C)=O)c(C)c4c(c3C(COC1=O)N1C(C#N)C3Cc5cc(C)c(OC)c(O)c5C(C21)N3C)OCO4 (stereo not shown) [Compound 19] |  |  |  |  |  |  | pIC50 ([1]; three days of incubation): 9.30; pIC50 ([2]; three days of incubation): 9.30; pIC50 ([3]; three days of incubation): 9.30; pIC50 ([4]; three days of incubation): 9.30; pIC50 ([5]; three days of incubation): 9.30
COc1cc2c(cc1OC(=O)CCCCC1SCC3NC(=O)NC31)CCNC21CSC2c3c(OC(C)=O)c(C)c4c(c3C(COC1=O)N1C(C#N)C3Cc5cc(C)c(OC)c(OC(=O)CCCCC6SCC7NC(=O)NC76)c5C(C21)N3C)OCO4 (stereo not shown) [Compound 20] |  |  |  |  |  |  | pIC50 ([1]; three days of incubation): 8.09; pIC50 ([2]; three days of incubation): 8.09; pIC50 ([3]; three days of incubation): 8.09; pIC50 ([4]; three days of incubation): 8.09; pIC50 ([5]; three days of incubation): 8.09
COc1cc2c(cc1OC(=O)OCc1ccccc1)CCN[C@]21CS[C@@H]2c3c(OC(C)=O)c(C)c4c(c3[C@H](COC1=O)N1C2[C@H]2c3c(cc(C)c(OC)c3O)C[C@@H]([C@@H]1C#N)N2C)OCO4 (stereo partly shown) [Compound 27] | 9.95 | 9.95 | 9.95 | 9.95 | 9.95 |  | 
COc1cc2c(cc1OC(=O)OCc1ccccc1)CCN[C@]21CS[C@@H]2c3c(OC(C)=O)c(C)c4c(c3[C@H](COC1=O)N1C2[C@H]2c3c(cc(C)c(OC)c3OC(=O)OCc3ccccc3)C[C@@H]([C@@H]1C#N)N2C)OCO4 (stereo partly shown) [Compound 28] | 8.02 | 8.02 | 8.02 | 8.02 | 8.02 |  | 
CCOc1cc2c(cc1OC)[C@@]1(CS[C@@H]3c4c(OC(C)=O)c(C)c5c(c4[C@H](COC1=O)N1C3[C@H]3c4c(cc(C)c(OC)c4OCC)C[C@@H]([C@@H]1C#N)N3C)OCO5)NCC2 (stereo partly shown) [Compound 38] |  | 7.92 | 7.92 | 7.92 | 7.92 | 7.92 | 
CCCOc1cc2c(cc1OC)[C@@]1(CS[C@@H]3c4c(OC(C)=O)c(C)c5c(c4[C@H](COC1=O)N1C3[C@H]3c4c(cc(C)c(OC)c4OCCC)C[C@@H]([C@@H]1C#N)N3C)OCO5)NCC2 (stereo partly shown) [Compound 40] |  | 5.93 | 5.93 | 5.93 | 5.93 | 5.93 | 
C=CCOc1cc2c(cc1OC)[C@@]1(CS[C@@H]3c4c(OC(C)=O)c(C)c5c(c4[C@H](COC1=O)N1C3[C@H]3c4c(cc(C)c(OC)c4O)C[C@@H]([C@@H]1C#N)N3C)OCO5)NCC2 (stereo partly shown) [Compound 41] |  | 8.91 | 8.91 | 8.91 | 8.91 | 8.91 | 
C=CCOc1cc2c(cc1OC)[C@@]1(CS[C@@H]3c4c(OC(C)=O)c(C)c5c(c4[C@H](COC1=O)N1C3[C@H]3c4c(cc(C)c(OC)c4OCC=C)C[C@@H]([C@@H]1C#N)N3C)OCO5)NCC2 (stereo partly shown) [Compound 42] |  | 7.93 | 7.93 | 7.93 | 7.93 | 7.93 | 
COc1cc2c(cc1OCc1ccccc1)CCN[C@]21CS[C@@H]2c3c(OC(C)=O)c(C)c4c(c3[C@H](COC1=O)N1C2[C@H]2c3c(cc(C)c(OC)c3O)C[C@@H]([C@@H]1C#N)N2C)OCO4 (stereo partly shown) [Compound 43] |  |  |  |  |  | 8.94 | pIC50 ([2]; Homo sapiens, SK-MEL-28, 72 h): 8.94; pIC50 ([3]; Homo sapiens, A549, 72 h): 8.94; pIC50 ([4]; Homo sapiens, HT-29, 72 h): 8.94; pIC50 ([5]; Mus musculus, P388, 72 h): 8.94
COc1cc2c(cc1OCc1ccccc1)CCN[C@]21CS[C@@H]2c3c(OC(C)=O)c(C)c4c(c3[C@H](COC1=O)N1C2[C@H]2c3c(cc(C)c(OC)c3OCc3ccccc3)C[C@@H]([C@@H]1C#N)N2C)OCO4 (stereo partly shown) [Compound 44] |  |  |  |  |  | 6.98 | pIC50 ([2]; Homo sapiens, SK-MEL-28, 72 h): 6.98; pIC50 ([3]; Homo sapiens, A549, 72 h): 6.98; pIC50 ([4]; Homo sapiens, HT-29, 72 h): 6.98; pIC50 ([5]; Mus musculus, P388, 72 h): 6.98
